From patent publication US20220217970A1, “Perfusion Regulated Organ Therapeutics with Enhanced Controlled Testing” (priority 2021, published 2022)

What was measured:
[1] = system: split human marginal donor liver (MDL) lobes; experiment: Serological liver injury markers during PROTECT normothermic perfusion of split liver lobes (Experiment 2); conditions: DM infusion 0.6 mmol/L, listed as DMAT
Description: In order to provide anatomic perfusion, a novel NMP described above and shown in FIGS. 1 and 2 was developed using an extra-corporal membrane oxygenation (ECMO) roller pump (Sorin/Stockert S3) with a modified circuit to provide dual blood supply to the hepatic artery and portal vein. Incorporated into this design was an arterial supply that passes through an oxygenator (Capiox Fx) and was connected to the hepatic artery.
Portal venous blood supply bypassed the oxygenator, was delivered to a reservoir, and then flowed by gravity into the portal vein. Pressure was regulated by the intrinsic resistance within the liver's arterial and portal venous circulations, combined with the resistance within the two limbs of the circuit and the flow delivered to each. […]
The circuit was monitored under guidance from a University certified ECMO perfusionist and the hospital ECMO physician team. […]
During each perfusion run (Table 1), laboratory analysis was carried out at regular intervals. Perfusate pH, pCO2, pO2, bicarbonate levels, and serum electrolytes (Na^+, K^+, Cl^−, ionized Ca^2+) were monitored every hour by automated blood gas analysis of both arterial and portal venous blood samples. […] Serum markers of liver injury, specifically AST, ALT, GGT, and alkaline phosphatase, were monitored hourly. […]
(§1) DM Dosing: In addition to the liver lobe weight, the volume of the cold preservation solution was measured. […]

[2] = system: split human marginal donor liver (MDL) lobes; experiment: Ki67 and CK-7 immunohistochemistry labeling index of perfused split lobes (Experiment 2)
Description: As a proof of concept, the system 10 was used to test the effect on IRI by deferoxamine (DM), which is a chelator of iron and a ferroptosis regulator. During the testing, one liver lobe was used as an internal control for the treated lobe. Ferroptosis, an iron-dependent form of programmed cell death, has been implicated as a mechanism of pathogenesis in models of liver, kidney, and lung reperfusion injury. […] In the DM Agent Treated (DMAT) lobe, DM was administered to one split liver segment, while the other segment served as the No Agent Internal Control (NAIC) lobe. This experiment was deemed as Experiment 2.
as §1
Liver biopsy tissue from each liver segment was fixed in 10% buffered formalin for 24 hours. […] The following describes the specific stains and the methods utilized for quantification.
Ki67 labeling index: The nuclear antigen Ki67 is expressed in the cell cycle phases G1, S, G2 and M, however not during G0. The percentage of the Ki67 positive nuclei are expressed as a labeling index, which provides an objective cell proliferation index in the tissues. […] All the positive (immunoreactive) hepatic nuclei were calculated and subsequently divided by the total number of cells in 5 non-overlapping high-power fields. […]

CC(=O)N(O)CCCCCNC(=O)CCC(=O)N(O)CCCCCNC(=O)CCC(=O)N(O)CCCCCN [Deferoxamine]
ΔALT (change in serum ALT over the course of the experiment) ([1]; Experiment 2, DM Agent Treated lobe vs No Agent Internal Control lobe (ΔALT NAIC 586)): −405 | ΔAST (change in serum AST over the course of the experiment) ([1]; Experiment 2, DM Agent Treated lobe vs No Agent Internal Control lobe (ΔAST NAIC 617)): −380 | CK-7 expression (labeling index, bile duct proliferation) ([2]; Experiment 2, DMAT lobe (NAIC 0.30, p=0.29, n=5)): 0.26 | Ki67 index (hepatocellular proliferation) ([2]; conclusion of Experiment 2, DMAT lobe (NAIC 0.38, p=0.16)): 0.32
